According to patent US11512053B2, “Arginine methyltransferase inhibitors and uses thereof” (priority 2013, dated 2022):
Counter-ions that a name gives are not always drawn. Like-named read-outs stand apart in the source and are kept apart here.

Key:
[1] = molecular target: full-length human PRMT8 isoform 1 (Homo sapiens, UniProt Q9NR22); test: PRMT8 Biochemical Assay (3H-SAM Flashplate, peptide substrate); settings: single experiment or average of multiple experiments; read-out: Biochemical IC50 PRMT8
full-length human PRMT8 isoform 1, sequence (Q9NR22 whole entry, canonical isoform): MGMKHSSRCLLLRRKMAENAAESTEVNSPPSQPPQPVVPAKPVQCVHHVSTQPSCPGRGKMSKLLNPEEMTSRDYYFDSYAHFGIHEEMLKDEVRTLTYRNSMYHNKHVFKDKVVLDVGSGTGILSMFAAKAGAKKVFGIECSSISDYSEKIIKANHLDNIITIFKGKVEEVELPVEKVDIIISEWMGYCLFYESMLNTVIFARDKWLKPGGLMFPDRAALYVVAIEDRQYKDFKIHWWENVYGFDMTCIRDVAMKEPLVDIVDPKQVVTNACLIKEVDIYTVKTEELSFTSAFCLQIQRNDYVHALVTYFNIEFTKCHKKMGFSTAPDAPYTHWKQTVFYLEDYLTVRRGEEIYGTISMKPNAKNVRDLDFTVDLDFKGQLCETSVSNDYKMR
Description: (§1) General Materials. S-adenosylmethionine (SAM), S-adenosylhomocysteine (SAH), bicine, Tween20, dimethylsulfoxide (DMSO), bovine skin gelatin (BSG), isopropyl-β-D-thiogalactopyranoside (IPTG), and Tris(2-carboxyethyl)phosphine hydrochloride solution (TCEP) were purchased from Sigma-Aldrich at the highest level of purity possible. ^3H-SAM was purchase from American Radiolabeled Chemicals with a specific activity of 80 Ci/mmol. 384-well streptavidin Flashplates were purchased from PerkinElmer.
Substrates. Peptide representative of human histone H4 residues 31-45 was synthesized with an N-terminal linker-affinity tag motif and a C-terminal amide cap by 21st Century Biochemicals. The peptide was purified by high-performance liquid chromatography (HPLC) to greater than 95% purity and confirmed by liquid chromatography mass spectrometry (LC-MS). The sequence was Biot-Ahx-[…]-amide (SEQ ID NO.:8).
The resulting construct encodes an N-terminal GST tag and a thrombin cleavage sequence ([…] […] […] […] SPEF) (SEQ ID NO.:9) fused directly to Met 1 of PRMT8.
Protein Expression. E. coli (BL21(DE3) Gold, Stratagene) made competent by the CaCl2) method were transformed with the PRMT8 construct and ampicillin selection. Protein over-expression was accomplished by growing the PRMT8 expressing E. coli clone and inducing expression with 0.3 mM IPTG at 16° C. The culture was grown for 12 hours, harvested by centrifugation, and stored at −80° C. for purification.
Protein Purification. […] GST-tagged PRMT8 was eluted with 50 mM Tris, 2 mM glutathione, pH 7.8. Pooled fractions were cleaved by thrombin (10U) and dialysed in buffer A. GST was removed by reloading the cleaved protein sample onto glutathione sepharose column and PRMT8 was collected in the flow-through fractions. PRMT8 was purified further by ceramic hydroxyapatite chromatography. The column was washed with 50 mM phosphate buffer, 100 mM NaCl, 5% glycerol, 5 mM β-mercaptoethanol, pH 7.8 and PRMT8 was eluted by 100 mM phosphate in the same buffer. Protein was concentrated and buffer was exchanged to 50 mM Tris, 300 mM NaCl, 10% glycerol, 5 mM β-mercaptoethanol, pH 7.8 by ultrafiltration. The purity of recovered protein was 89%.
General Procedure for PRMT8 Enzyme Assays on Peptide Substrates. The assays were all performed in a buffer consisting of 20 mM Bicine (pH=7.6), 1 mM TCEP, 0.005% BSG, and 0.002% Tween 20, prepared on the day of use. Compounds in 100% DMSO (1 ul) were spotted into a polypropylene 384-well V-bottom plates (Greiner) using a Platemate Plus outfitted with a 384-channel head (Thermo Scientific). DMSO (1 ul) was added to Columns 11, 12, 23, 24, rows A-H for the maximum signal control and 1 ul of SAH, a known product and inhibitor of PRMT8, was added to columns 11, 12, 23, 24, rows I-P for the minimum signal control. A cocktail (40 ul) containing the PRMT8 enzyme was added by Multidrop Combi (Thermo-Fisher). The compounds were allowed to incubate with PRMT8 for 30 min at room temperature, then a cocktail (10 ul) containing ^3H-SAM and peptide was added to initiate the reaction (final volume=51 ul). The final concentrations of the components were as follows: PRMT8 was 1.5 nM, ^3H-SAM was 50 nM, non-radiolabeled SAM was 550 nM, peptide was 150 nM, SAH in the minimum signal control wells was 1 mM, and the DMSO concentration was 2%. The assays were stopped by the addition of non-radiolabeled SAM (10 ul) to a final concentration of 400 uM, which dilutes the ^3H-SAM to a level where its incorporation into the peptide substrate is no longer detectable. 50 ul of the reaction in the 384-well polypropylene plate was then transferred to a 384-well Flashplate and the biotinylated peptides were allowed to bind to the streptavidin surface for at least 1 hour before being washed once with 0.1% Tween20 in a Biotek ELx405 plate washer. […]

[2] = test system: mono-methyl arginine in RKO cells; test: RKO Methylation Assay, In Cell Western (ICW) for detection of mono-methyl arginine and DNA content; type: cell-based; settings: for EC30: Homo sapiens, RKO, 72 h
Description: RKO adherent cells were purchased from ATCC (American Type Culture Collection), Manassas, Va., USA. DMEM/Glutamax medium, penicillin-streptomycin, heat inactivated fetal bovine serum, 0.05% trypsin and D-PBS were purchased from Life Technologies, Grand Island, N.Y., USA. Odyssey blocking buffer, 800 CW goat anti-rabbit IgG (H+L) antibody, and Licor Odyssey infrared scanner were purchased from Licor Biosciences, Lincoln, Nebr., USA. Mono-methyl arginine antibody was purchased from Cell Signaling Technology, Danvers, Mass., USA. Methanol was purchased from VWR, Franklin, Mass., USA. 10% Tween 20 was purchased from KPL, Inc., Gaithersburg, Md., USA. DRAQ5 was purchased from Biostatus Limited, Leicestershire, UK.
RKO adherent cells were maintained in growth medium (DMEM/Glutamax medium supplemented with 10% v/v heat inactivated fetal bovine serum and 100 units/mL penicillin-streptomycin) and cultured at 37° C. under 5% CO2.
Cell treatment, In Cell Western (ICW) for detection of mono-methyl arginine and DNA content. […] Compound (100 nL) from a 96-well source plate was added directly to 384 well cell plate. Plates were incubated at 37° C., 5% CO2 for 72 hours. After three days of incubation, plates were brought to room temperature outside of the incubator for ten minutes and blotted on paper towels to remove cell media. 50 μL of ice cold 100% methanol was added directly to each well and incubated for 30 min at room temperature. After 30 min, plates were transferred to a Biotek EL406 plate washer and washed 2 times with 100 μL per well of wash buffer (1×PBS). Next 60 μL per well of Odyssey blocking buffer (Odyssey Buffer with 0.1% Tween 20 (v/v)) were added to each plate and incubated 1 hour at room temperature. Blocking buffer was removed and 20 μL per well of primary antibody was added (mono-methyl arginine diluted 1:200 in Odyssey buffer with 0.1% Tween 20 (v/v)) and plates were incubated overnight (16 hours) at 4° C. Plates were washed 5 times with 100 μL per well of wash buffer. […] The plates were washed 5 times with 100 μL per well wash buffer then 2 times with 100 μL per well of water. Plates were allowed to dry at room temperature then imaged on the Licor Odyssey machine which measures integrated intensity at 700 nm and 800 nm wavelengths. Both 700 and 800 channels were scanned.
Calculations: First, the ratio for each well was determined by:
Each plate included fourteen control wells of DMSO only treatment (minimum activation) as well as fourteen control wells for maximum activation treated with 20 μM of a reference compound. The average of the ratio values for each control type was calculated and used to determine the percent activation for each test well in the plate. Reference compound was serially diluted three-fold in DMSO for a total of nine test concentrations, beginning at 20 μM. Percent activation was determined and EC30 curves were generated using triplicate wells per concentration of compound.

[3] = molecular target: full-length human PRMT6 (Flag- and His-tagged) (Homo sapiens, UniProt Q96LA8); test: PRMT6 Biochemical Assay (3H-SAM Flashplate, peptide substrate)
full-length human PRMT6 (Flag- and His-tagged), sequence (Q96LA8 with tags, fused parts or gaps): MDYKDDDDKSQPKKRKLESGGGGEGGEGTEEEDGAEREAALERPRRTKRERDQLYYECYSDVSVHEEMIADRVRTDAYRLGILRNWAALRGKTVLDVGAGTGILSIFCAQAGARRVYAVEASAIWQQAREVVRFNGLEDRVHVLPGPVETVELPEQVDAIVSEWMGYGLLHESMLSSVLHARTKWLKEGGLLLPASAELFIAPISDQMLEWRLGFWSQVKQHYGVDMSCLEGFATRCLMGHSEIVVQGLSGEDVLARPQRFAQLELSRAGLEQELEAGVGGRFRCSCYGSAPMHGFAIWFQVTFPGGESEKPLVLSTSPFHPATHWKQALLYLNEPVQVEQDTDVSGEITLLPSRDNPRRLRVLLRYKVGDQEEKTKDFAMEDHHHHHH
Description: as §1, with “sodium butyrate” for “isopropyl-β-D-thiogalactopyranoside (IPTG),”
Substrates. Peptide representative of human histone H4 residues 36-50 was synthesized with an N-terminal linker-affinity tag motif and a C-terminal amide cap by 21st Century Biochemicals. The peptide was purified by high-performance liquid chromatography (HPLC) to greater than 95% purity and confirmed by liquid chromatography mass spectrometry (LC-MS). The sequence was Biot-Ahx-[…]-amide and contained a monomethylated lysine at position 44 (SEQ ID NO.:5).
Molecular Biology: Full-length human PRMT6 (NM_018137.2) transcript clone was amplified from an HEK 293 cDNA library, incorporating a flanking 5′ sequence encoding a FLAG tag ([…]) (SEQ ID NO.:6) fused directly to Ser 2 of PRMT6 and a 3′ sequence encoding a hexa His sequence (HHHHHH) (SEQ ID NO.:17) fused directly to Asp 375. The amplified gene was subcloned into pFastBacMam (Viva Biotech).
Protein Expression. Recombinant baculovirus were generated according to Bac-to-Bac kit instructions (Life Technologies). […] Infections were carried out at 37° C. for 48 hours, harvested by centrifugation, and stored at −80° C. for purification.
Protein Purification. […] Column was washed with 20 mM imidazole in the same buffer and Flag-PRMT6-His was eluted with 150 mM imidazole. Pooled fractions were dialysed against buffer N^1-A and further purified by anti-flag M2 affinity chromatography. Flag-PRMT6-His was eluted with 200 ug/ml FLAG peptide in the same buffer. Pooled fractions were dialysed in 20 mM Tris, 150 mM NaCl, 10% glycerol and 5 mM β-mercaptoethanol, pH 7.8. The purity of recovered protein was 95%.
General Procedure for PRMT6 Enzyme Assays on Peptide Substrates. The assays were all performed in a buffer consisting of 20 mM Bicine (pH=7.6), 1 mM TCEP, 0.005% BSG, and 0.002% Tween 20, prepared on the day of use. Compounds in 100% DMSO (1 ul) were spotted into a polypropylene 384-well V-bottom plates (Greiner) using a Platemate Plus outfitted with a 384-channel head (Thermo Scientific). DMSO (1 ul) was added to Columns 11, 12, 23, 24, rows A-H for the maximum signal control and 1 ul of SAH, a known product and inhibitor of PRMT6, was added to columns 11, 12, 23, 24, rows I-P for the minimum signal control. A cocktail (40 ul) containing the PRMT6 enzyme was added by Multidrop Combi (Thermo-Fisher). The compounds were allowed to incubate with PRMT6 for 30 min at room temperature, then a cocktail (10 ul) containing SAM and peptide was added to initiate the reaction (final volume=51 ul). The final concentrations of the components were as follows: PRMT6 was 1 nM, ^3H-SAM was 200 nM, non-radiolabeled SAM was 250 nM, peptide was 75 nM, SAH in the minimum signal control wells was 1 mM, and the DMSO concentration was 2%. The assays were stopped by the addition of non-radiolabeled SAM (10 ul) to a final concentration of 400 uM, which dilutes the ^3H-SAM to a level where its incorporation into the peptide substrate is no longer detectable. 50 ul of the reaction in the 384-well polypropylene plate was then transferred to a 384-well Flashplate and the biotinylated peptides were allowed to bind to the streptavidin surface for at least 1 hour before being washed once with 0.1% Tween20 in a Biotek ELx405 plate washer. The plates were then read in a PerkinElmer TopCount plate reader to measure the quantity of ^3H-labeled peptide bound to the Flashplate surface, measured as disintegrations per minute (dpm) or alternatively, referred to as counts per minute (cpm). […]

Structure (SMILES) | IC50 [1] [nM] | EC30 ([2]; RKO cells, 72 hours incubation, mono-methyl arginine signal normalised to DNA content, single experiment or average of multiple experiments, read-out: In Cell Western EC30) [nM] | In Cell Western EC30 ([2]; RKO cells, 72 hours compound incubation, mono-methyl arginine signal normalised to DNA content (DRAQ5), percent activation vs 20 μM reference compound) | EC30 ([2]; read-out: In Cell Western EC30, RKO cells, 72 hours compound incubation, mono-methyl arginine signal normalised to DNA content (DRAQ5), percent activation vs 20 μM reference compound) [nM] | EC30 ([2]; read-out: In Cell Western EC30, RKO cells, 72 hours incubation, mono-methyl arginine signal normalised to DNA content, single experiment or average of multiple experiments) [nM] | IC50 ([3]; Biochemical IC50 PRMT6) [nM] | IC50 ([3]; Biochemical IC50 PRMT6, single experiment or average of multiple experiments) [nM]
CN(CCN)Cc1c[nH]nc1C1CCC(N2CCOCC2)CC1 (stereo not shown) [Compound 43, N^1-methyl-N^1-((3-(4-morpholinocyclohexyl)-1H-pyrazol-4-yl)methyl)ethane-1,2-diamine] | 11.6 | 2600 | A (“A” indicates an EC30 ≤ 3.00 μM) |  |  |  | 
CCOCC1(COCC)CCC(c2n[nH]cc2CN(C)CCNC)CC1 [Compound 158, ([3-[4,4-bis(ethoxymethyl)cyclohexyl]-1H-pyrazol-4-yl]methyl)(methyl)[2-(methylamino)ethyl]amine hydrochloride salt] |  |  |  | < 3000 | 8 | < 100 | 91
